Measured values: patent US20230348376A1 (TEIJIN PHARMA LIMITED, priority 2020, published 2023)

Key:
[1] = tested on: rat oligodendrocyte progenitor cells; experiment: Promotive activity of rat oligodendrocyte progenitor cell differentiation-1 (MBP gene expression, mRNA); type: cell-based; conditions: Rattus norvegicus, Oligodendrocyte progenitor cell, 96 h, read-out: promotive activity at T3 base (MBP gene expression; DMSO 0%, T3 100%), 4 days, MBP/β actin mRNA
Method: Regarding vitamin D derivatives, which was confirmed to act on the vitamin D receptor (VDR) in Example 352, the promotive activity of oligodendrocyte progenitor cell (OPC) differentiation was evaluated by MBP gene expression (mRNA).
A forebrain obtained from SD rat (Charles River Japan, 1 day old) was crushed with 70 μm Cell Strainer (Falcon #352350), and a cell suspension was prepared by collecting the cells in oligodendrocyte progenitor cell separation medium (20% FBS/2 mM Glutamax (Gibco #35050-061)/i mM sodium pyruvate (Gibco #11360-070)/1% penicillin-streptomycin (Invitrogen #15140-122)/DMEM (Gibco #11960-044)). The cell suspension was seeded in a poly-D-lysine coated T75 flask (Thermo Fisher Scientific #132704) and cultured for about 2 weeks. After culturing, the flask was shaken using a rotary shaker ([…] #WB-101SRC) for about 1 hour (37° C., 100 rpm), and the supernatant was discarded to remove microglia. Subsequently, oligodendrocyte progenitor cell separation medium was added to the flask, and the mixture was similarly shaken for about 22 hours (37° C., 200 rpm), and the supernatant was collected to prepare oligodendrocyte progenitor cells.
The oligodendrocyte progenitor cell prepared was suspended in a differentiation medium (2% B27 (Thermo Fisher Scientific, Inc. #17504-044)/1% penicillin-streptomycin (Invitrogen Corporation #15140-122)/10 ng/mL CNTF (PeproTech Inc. #AF-450-13)/DMEM (Gibco #11960-044)), and seeded on a 96-well plate coated with poly-L-ornithine (FUJIFILM Wako Pure Chemical Corporation #163-27421) under the condition of 0.65×10^4 cells/well, and on a 384-well plate under the condition of 2×10^3 cells/well using an automatic dispensing system (LABCYTE #Echo555). […] After culturing, the cells seeded on the 96-well plate were subjected to immunostaining against MBP using following methods: fixation (4% paraformaldehyde solution, 30 minutes, room temperature), PBS washing, membrane permeation treatment (0.1% Trion X-100 (SIGMA #X100-100ML)/PBS, 3 minutes, room temperature), blocking (3% BSA (SIGMA #A9647-10G)/PBS, 1 hour, room temperature), primary antibody reaction (MBP antibody (abcam plc #ab40390), 2.5 μg/mL, 4° C., 24 hours), PBS washing, secondary antibody reaction (Alexa488 anti-rabbit IgG (Thermo Fisher Scientific, Inc. #A-11034), 5 μg/mL, room temperature, 1 hour), PBS washing, and nuclear staining (Hoechst33342 (DOJINDO #NU043), 10 μg/mL, room temperature, 5 minutes). Subsequently, images of each well were acquired using a fluorescence microscope (KEYENCE CORPORATION #BZ-X800), the number of MBP-positive cells and Hoechst 33342-positive cells were measured using an image analysis application (KEYENCE CORPORATION #BZ-X800 Analyzer), and then the ratio (the number of MBP-positive cells/the number of Hoechst33342-positive cells) was calculated. The cells seeded on the 384-well plate were subjected to real-time PCR using Cells-to-CT 1-Step TaqMan Kit (Thermo Fisher Scientific, Inc. #A25602) and QuantStudio 12K Flex Real-Time PCR System (Thermo Fisher Scientific, Inc. #4472380). The experiment was performed in accordance with the protocol attached to the kit. MBP (Thermo Fisher Scientific, Inc. #Assay ID Rn00690616_ml) and β actin (Thermo Fisher Scientific, Inc. #Assay ID Rn00667869_ml) were used as primers, and the expression levels of each were measured and the ratio (MBP/β actin) was calculated.

human VDR = molecular target: T1, human VDR (Homo sapiens, UniProt P11473); experiment: Evaluation of VDR transcription activity in human osteoblasts (HOS cells), luciferase reporter; conditions: Activity (EC50, VDR transcription activity), HOS cells transfected with human VDR, human RXRα and DR3 luciferase reporter; 21 hours
T1 sequence (P11473 1-427): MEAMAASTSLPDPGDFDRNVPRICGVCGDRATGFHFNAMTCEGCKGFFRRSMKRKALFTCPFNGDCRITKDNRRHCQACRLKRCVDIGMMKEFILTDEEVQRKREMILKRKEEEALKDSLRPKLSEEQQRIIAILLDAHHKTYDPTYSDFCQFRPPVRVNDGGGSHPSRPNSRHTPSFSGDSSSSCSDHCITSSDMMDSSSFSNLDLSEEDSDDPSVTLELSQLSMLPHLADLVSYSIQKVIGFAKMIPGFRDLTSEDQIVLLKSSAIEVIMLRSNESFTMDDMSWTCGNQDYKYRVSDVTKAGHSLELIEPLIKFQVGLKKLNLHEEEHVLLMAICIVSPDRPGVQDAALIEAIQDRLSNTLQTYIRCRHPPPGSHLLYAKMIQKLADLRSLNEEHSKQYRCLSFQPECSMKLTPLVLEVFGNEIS
T1 sequence (P19793 1-462 partner): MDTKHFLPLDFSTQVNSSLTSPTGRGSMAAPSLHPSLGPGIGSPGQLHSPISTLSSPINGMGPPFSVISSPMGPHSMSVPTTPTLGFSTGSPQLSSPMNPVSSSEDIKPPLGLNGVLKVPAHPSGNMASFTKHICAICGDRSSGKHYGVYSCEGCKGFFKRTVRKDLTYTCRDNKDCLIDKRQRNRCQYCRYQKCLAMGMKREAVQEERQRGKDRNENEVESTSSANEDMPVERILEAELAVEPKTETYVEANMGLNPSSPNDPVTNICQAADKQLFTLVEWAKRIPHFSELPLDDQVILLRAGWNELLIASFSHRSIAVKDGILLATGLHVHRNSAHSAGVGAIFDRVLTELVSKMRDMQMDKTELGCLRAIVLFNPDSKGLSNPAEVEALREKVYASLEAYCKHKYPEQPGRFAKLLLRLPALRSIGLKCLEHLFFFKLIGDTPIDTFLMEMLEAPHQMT

SMILES	activation at 1 µM [1]	EC50 (human VDR)
C[C@@H]1CCN(C[C@@H](C)[C@H]2CC[C@H]3/C(=C/C=C4C[C@@H](O)C[C@H](O)C4)CCC[C@]23C)C1 [Compound B004, (1R,3R)-5-(2-((1R,3aS,7aR,E)-7a-methyl-1-((S)-1-((R)-3-methylpyrrolidin-1-yl)propan-2-yl)octahydro-4H-inden-4-ylidene)ethylidene)cyclohexane-1,3-diol]	≥ 20%	1 to 10 nM
C=C1/C(=C\C=C2/CCC[C@]3(C)[C@@H]([C@H](C)CN4CC[C@H](OC(F)F)C4)CC[C@@H]23)C[C@@H](O)C[C@@H]1O [Compound B047, (1R,3S,Z)-5-(2-((1R,3aS,7aR,E)-1-((S)-1-((S)-3-(difluoromethoxy)pyrrolidin-1-yl)propan-2-yl)-7a-methyloctahydro-4H-inden-4-ylidene)ethylidene)-4-methylenecyclohexane-1,3-diol]	≥ 20%	10 to 100 nM
C=C1/C(=C\C=C2/CCC[C@]3(C)[C@@H]([C@H](C)CN4CC[C@@H](OC(F)F)C4)CC[C@@H]23)C[C@@H](O)C[C@@H]1O [Compound B048, (1R,3S,Z)-5-(2-((1R,3aS,7aR,E)-1-((S)-1-((R)-3-(difluoromethoxy)pyrrolidin-1-yl)propan-2-yl)-7a-methyloctahydro-4H-inden-4-ylidene)ethylidene)-4-methylenecyclohexane-1,3-diol]	≥ 20%	10 to 100 nM
C=C1/C(=C\C=C2/CCC[C@]3(C)[C@@H]([C@H](C)CN4CC[C@H](CCC(F)F)C4)CC[C@@H]23)C[C@@H](O)C[C@@H]1O [Compound B059, (1R,3S,Z)-5-(2-((1R,3aS,7aR,E)-1-((S)-1-((S)-3-(3,3-difluoropropyl)pyrrolidin-1-yl)propan-2-yl)-7a-methyloctahydro-4H-inden-4-ylidene)ethylidene)-4-methylenecyclohexane-1,3-diol]	≥ 20%	100 to 1000 nM
C=C1[C@H](O)CC(=C/C=C2\CCC[C@]3(C)[C@@H]([C@H](C)CN4CC[C@H](CCC(F)F)C4)CC[C@@H]23)C[C@H]1O [Compound B061, (1R,3R)-5-(2-((1R,3aS,7aR,E)-1-((S)-1-((S)-3-(3,3-difluoropropyl)pyrrolidin-1-yl)propan-2-yl)-7a-methyloctahydro-4H-inden-4-ylidene)ethylidene)-2-methylenecyclohexane-1,3-diol]	≥ 20%	1 to 10 nM
C=C1[C@H](O)CC(=C/C=C2\CCC[C@]3(C)[C@@H]([C@H](C)CN4CC[C@@H](CCC(F)F)C4)CC[C@@H]23)C[C@H]1O [Compound B062, (1R,3R)-5-(2-((1R,3aS,7aR,E)-1-((S)-1-((R)-3-(3,3-difluoropropyl)pyrrolidin-1-yl)propan-2-yl)-7a-methyloctahydro-4H-inden-4-ylidene)ethylidene)-2-methylenecyclohexane-1,3-diol]	≥ 20%	10 to 100 nM
C[C@H](CCN1CC[C@H](CC(F)F)C1)[C@H]1CC[C@H]2/C(=C/C=C3C[C@@H](O)C[C@H](O)C3)CCC[C@]12C [Compound B082, (1R,3R)-5-(2-((1R,3aS,7aR,E)-1-((R)-4-((R)-3-(2,2-difluoroethyl)pyrrolidin-1-yl)butan-2-yl)-7a-methyloctahydro-4H-inden-4-ylidene)ethylidene)cyclohexane-1,3-diol]	≥ 20%	10 to 100 nM
C=C1/C(=C\C=C2/CCC[C@]3(C)[C@@H]([C@H](C)CN4CCC[C@H](C(C)(F)F)C4)CC[C@@H]23)C[C@@H](O)C[C@@H]1O [Compound C052, (1R,3S,Z)-5-(2-((1R,3aS,7aR,E)-1-((S)-1-((S)-3-(1,1-difluoroethyl)piperidin-1-yl)propan-2-yl)-7a-methyloctahydro-4H-inden-4-ylidene)ethylidene)-4-methylenecyclohexane-1,3-diol]	≥ 20%	10 to 100 nM
C=C1/C(=C\C=C2/CCC[C@]3(C)[C@@H]([C@H](C)CN4CCC[C@H](C(C)(F)F)C4)CC[C@@H]23)C[C@@H](O)[C@H](C)[C@@H]1O [Compound C054, (1R,2S,3S,Z)-5-(2-((1R,3aS,7aR,E)-1-((S)-1-((S)-3-(1,1-difluoroethyl)piperidin-1-yl)propan-2-yl)-7a-methyloctahydro-4H-inden-4-ylidene)ethylidene)-2-methyl-4-methylenecyclohexane-1,3-diol]	≥ 20%	10 to 100 nM
C=C1/C(=C\C=C2/CCC[C@]3(C)[C@@H]([C@@H](C)CN4CCOCC4)CC[C@@H]23)C[C@@H](O)[C@H](C)[C@@H]1O [Compound D003, (1R,2S,3S,Z)-2-methyl-5-(2-((1R,3aS,7aR,E)-7a-methyl-1-((R)-1-morpholinopropan-2-yl)octahydro-4H-inden-4-ylidene)ethylidene)-4-methylenecyclohexane-1,3-diol]	≥ 20%	10 to 100 nM
C=C1[C@H](O)CC(=C/C=C2\CCC[C@]3(C)[C@@H]([C@H](C)CN4CCO[C@H](C(F)F)C4)CC[C@@H]23)C[C@H]1O [Compound D007, (1R,3R)-5-(2-((1R,3aS,7aR,E)-1-((S)-1-((S)-2-(difluoromethyl)morpholino)propan-2-yl)-7a-methyloctahydro-4H-inden-4-ylidene)ethylidene)-2-methylenecyclohexane-1,3-diol]	≥ 20%	1 to 10 nM
C=C1[C@H](O)CC(=C/C=C2\CCC[C@]3(C)[C@@H]([C@H](C)CN4CCO[C@@H](C(F)F)C4)CC[C@@H]23)C[C@H]1O [Compound D008, (1R,3R)-5-(2-((1R,3aS,7aR,E)-1-((S)-1-((R)-2-(difluoromethyl)morpholino)propan-2-yl)-7a-methyloctahydro-4H-inden-4-ylidene)ethylidene)-2-methylenecyclohexane-1,3-diol]	≥ 20%	1 to 10 nM
